Reference: US4822804A, “5,6,7,-trinor-4,8-inter-m-phenylene 2-nor PGI2 derivatives and anti-ulcer, anti-thrombotic and anti-hypertensive pharmaceutical compositions containing them” (Toray Industries, Inc., priority 1981, dated 1989)
Converted amounts (≈) assume the structure as drawn.

How the values were obtained:
[1] = Arterial blood pressure of anesthetized rats, intravenous injection; assay type: in vivo; details: rat, i.v., pentobarbital anesthesia
Procedure: Under pentobarbital anesthesia (50 mg/kg s.c.), a catheter was inserted into the carotid artery. The blood pressure was measured via a pressure transducer on a polygraph.

[2] = Diarrhoea inducing action, subcutaneous; assay type: in vivo; details: up to the dose of 3 mg/kg, rat
[3] = system: platelet rich plasma; test: Anti-aggregatory effect in platelet rich plasma (Born's method; arachidonic acid, ADP and collagen); assay type: cell-based; details: PRP of man or rabbit, ADP, collagen
[4] = system: gastric juice secretion; test: Gastric juice secretion inhibition (Shay's method), subcutaneous; assay type: in vivo
[5] = system: Human Platelet; test: Human platelet aggregation inhibiting activity (aggregating agent ADP); assay type: cell-based; details: human platelet rich plasma, read-out: ID50, human platelet aggregation inhibiting activity
Procedure: Blood was collected from healthy volunteers using a disposable syringe containing 3.8% sodium citrate from the saphnous vein. The blood was centrifuged for 10 minutes at 160×g. The resultant supernatant liquid was used as platelet rich plasma (PRP). Aggregation was induced by […] ADP (Adenosine diphosphate). The inhibition rate was calculated against a control aggregation of 100%.
ED50 (effective dose 50) is defined as the dosage required to produce a response in 50% of the subjects to whom the compound is given.

[6] = as recognized in prostaglandin E1 and E2; cited from earlier work
[7] = system: gastric mucous membrane; test: Protection against gastric mucous membrane lesion due to alcohol (Robert's method); assay type: in vivo; details: rat, oral
Procedure: Gastric cytoprotection was measured according to the method of Robert et al (Gastroenterol 77, 433-443, 1979). The rats fasted overnight and were given a necrotizing agent (0.2N NaOH 1 ml/rat (Method A) or Absolute EtOH (Method B)) and killed one hour later for the examination of gastric lesions. The test drug was administered 30 minutes before the necrotizing agent. The length of the lesion was measured and expressed in terms of the ulcer index. The effect of the drug was expressed in terms of the inhibition rate against the ulcer index of a control animal.

[8] = neutral aqueous solution; cited from earlier work

With `CCCCCCC(O)C#CC1C(O)CC2Oc3c(CCCC(=O)O)cccc3C21` (stereo not drawn) [Compound 6, 5,6,7,-trinor-4,8-inter-m-phenylene-13,14-didehydro-20-methyl-PGI2] the “blood pressure reducing activity relative to prostaglandin E1” value [1] was 1-2 times, the “duration of blood pressure reducing activity compared with prostaglandin E1” value [1] was “more prolonged duration” and the diarrhoea inducing action [2] was “do not exhibit the diarrhoea inducing actions”. For the same compound, the “anti-aggregatory effect compared with prostaglandin E1” value [3] was “comparable or stronger anti-aggregatory effect”.

In the case of `CCCC(C)C[C@H](O)/C=C/[C@@H]1[C@H]2c3cccc(CCCC(=O)O)c3O[C@H]2C[C@H]1O` (stereo partly drawn) [Compound 48, 5,6,7-trinor-4,8-inter-m-phenylene-17-α-methyl PGI2], the “blood pressure reducing activity relative to prostaglandin E1” value [1] is reported as 1-2 times, the “duration of blood pressure reducing activity compared with prostaglandin E1” value [1] is reported as “more prolonged duration” and the diarrhoea inducing action [2] is reported as “do not exhibit the diarrhoea inducing actions”. The “anti-aggregatory effect compared with prostaglandin E1” value [3] was “comparable or stronger anti-aggregatory effect”.

In the case of `O=C(O)CCCc1cccc2c1OC1CC(O)C(C#CC(O)C3CCCCC3)C21` (stereo not drawn) [Compound 9, 5,6,7,-trinor-4,8-inter-m-phenylene-13,14-didehydro-15-cyclohexyl-16,17,18,19,20-pentanor PGI2], the “blood pressure reducing activity relative to prostaglandin E1” value [1] is reported as 1-2 times, the “duration of blood pressure reducing activity compared with prostaglandin E1” value [1] is reported as “more prolonged duration” and the diarrhoea inducing action [2] is reported as “do not exhibit the diarrhoea inducing actions”. For the same compound, the “anti-aggregatory effect compared with prostaglandin E1” value [3] was “comparable or stronger anti-aggregatory effect”.

In the case of `O=C(O)CCCc1cccc2c1O[C@H]1C[C@@H](O)[C@H](/C=C/[C@@H](O)COc3ccccc3)[C@@H]21` (relative stereo) [Compound 60, 5,6,7-trinor-4,8-inter-m-phenylene-17,18,19,20-tetranor-16-phenoxy PGI2], the “effective dose relative to the dose of prostaglandin E2, gastric juice secretion inhibition” value [4] is reported as 0.1-0.3 times.

`CCC[C@H](C)C[C@H](O)/C=C/[C@@H]1[C@H]2c3cccc(CCC(=O)O)c3O[C@H]2C[C@H]1O` [5,6,7-trinor-4,8-inter-m-phenylene-2-nor-17(S)-methyl PGI2] gave an IC50 [5] of 0.0006 µg/mL (≈ 0.00154 µM).

With `CCCCC(C)C[C@H](O)/C=C/[C@@H]1[C@H]2c3cccc(CCCC(=O)O)c3O[C@H]2C[C@H]1O` (stereo partly drawn) [Compound 55, 5,6,7-trinor-4,8-inter-m-phenylene-17-α-methyl-20-homo PGI2] the “blood pressure reducing activity relative to prostaglandin E1” value [1] was 1-2 times, the “duration of blood pressure reducing activity compared with prostaglandin E1” value [1] was “more prolonged duration” and the diarrhoea inducing action [2] was “do not exhibit the diarrhoea inducing actions”. For the same compound, the “anti-aggregatory effect compared with prostaglandin E1” value [3] was “comparable or stronger anti-aggregatory effect”.

`CCCOC[C@H](O)/C=C/[C@@H]1[C@H]2c3cccc(CCCC(=O)O)c3O[C@H]2C[C@H]1O` (relative stereo) [Compound 66, 5,6,7-trinor-4,8-inter-m-phenylene-17,18,19,20-tertranor-16-propoxy PGI.su b.2] gave an IC50 [5] of 0.49 µg/mL (≈ 1.25 µM).

With `CCCCC(C)[C@H](O)/C=C/[C@@H]1[C@H]2c3cccc(CCC(=O)O)c3O[C@H]2C[C@H]1O` (stereo partly drawn) [5,6,7-trinor-4,8-inter-m-phenylene-2-nor-16-methyl PGI2] the IC50 [5] was 0.011 µg/mL (≈ 0.0283 µM).

In the case of `CCCCC[C@H](O)/C=C/[C@H]1[C@H](O)CC(=O)[C@@H]1C/C=C\CCCC(=O)O` [prostaglandin E2], the “diarrhoea inducing action of reference prostaglandins” value [6] is given as “diarrhoea inducing actions recognized”.

For `O=C(O)/C=C/Cc1cccc2c1O[C@H]1C[C@@H](O)[C@H](/C=C/[C@@H](O)c3ccccc3)[C@@H]21` (relative stereo) [Compound 97, 5,6,7-trinor-4,8-inter-m-phenylene-2,3-dehydro-16,17,18,19,20-pentanor-15-phenyl-PGI2], the “blood pressure reducing activity relative to prostaglandin E1” value [1] was 1-2 times, the “duration of blood pressure reducing activity compared with prostaglandin E1” value [1] was “more prolonged duration” and the diarrhoea inducing action [2] was “do not exhibit the diarrhoea inducing actions”. The “gastric mucous membrane protecting activity relative to prostaglandin E2” value [7] was 0.3-1 times, the “effective dose relative to the dose of prostaglandin E2, gastric juice secretion inhibition” value [4] was 0.1-0.3 times and the “anti-aggregatory effect compared with prostaglandin E1” value [3] was “comparable or stronger anti-aggregatory effect”.

`CCCOC[C@H](O)/C=C/[C@@H]1[C@H]2c3cccc(CCC(=O)O)c3O[C@H]2C[C@H]1O` (relative stereo) [5,6,7-trinor-4,8-inter-m-phenylene-2,17,18,19,20-pentanor-16-propoxy PGI2] gave an IC50 [5] of 0.048 µg/mL (≈ 0.128 µM).

With `CCCC(C)CC(O)C=CC1C(O)CC2Oc3c(CCCC(=O)O)cccc3C21` (stereo not drawn) [Compound 49, 5,6,7-trinor-4,8-inter-m-phenylene-17-β-methyl PGI2] the “blood pressure reducing activity relative to prostaglandin E1” value [1] was 1-2 times, the “duration of blood pressure reducing activity compared with prostaglandin E1” value [1] was “more prolonged duration” and the diarrhoea inducing action [2] was “do not exhibit the diarrhoea inducing actions”. For the same compound, the “anti-aggregatory effect compared with prostaglandin E1” value [3] was “comparable or stronger anti-aggregatory effect”.

In the case of `CCCCC[C@H](O)/C=C/[C@@H]1[C@H]2C/C(=C/CCCC(=O)O)O[C@H]2C[C@H]1O` [PGI2, Prostaglandin I2], the “stability in aqueous solution” value [8] is given as “very unstable even in a neutral aqueous solution”.

With `CCOCC(C)(C)[C@H](O)/C=C/[C@@H]1[C@H]2c3cccc(CCCC(=O)O)c3O[C@H]2C[C@H]1O` (relative stereo) [Compound 76, 5,6,7-trinor-4,8-inter-m-phenylene-16,16-dimethyl-18,19,20-trinor-17-ethoxyPGI2] the “gastric mucous membrane protecting activity relative to prostaglandin E2” value [7] was 0.3-1 times and the “effective dose relative to the dose of prostaglandin E2, gastric juice secretion inhibition” value [4] was 0.1-0.3 times.

With `CCC[C@H](C)C[C@H](O)/C=C/[C@@H]1[C@H]2c3cccc(CCCC(=O)O)c3O[C@H]2C[C@H]1O` [5,6,7-trinor-4,8-inter-m-phenylene-17(S)-methyl PGI2] the IC50 [5] was 0.005 µg/mL (≈ 0.0124 µM).

For `CCCCC(C)[C@H](O)/C=C/[C@@H]1[C@H]2c3cccc(CCCC(=O)O)c3O[C@H]2C[C@H]1O` (stereo partly drawn) [5,6,7-trinor-4,8-inter-m-phenylene-16-methyl PGI2], the IC50 [5] was 0.031 µg/mL (≈ 0.077 µM).

With `COC(=O)CCCc1cccc2c1O[C@H]1C[C@@H](O)[C@H](C#CC(O)c3ccccc3)[C@@H]21` (stereo partly drawn) [Compound 19, 5,6,7-trinor-4,8-inter-m-phenylene-13,14-didehydro-15-phenyl-16,17,18,19,20-pentanor PGI2 methyl ester] the “blood pressure reducing activity relative to prostaglandin E1” value [1] was 1-2 times, the “duration of blood pressure reducing activity compared with prostaglandin E1” value [1] was “more prolonged duration” and the diarrhoea inducing action [2] was “do not exhibit the diarrhoea inducing actions”. The “gastric mucous membrane protecting activity relative to prostaglandin E2” value [7] was 0.3-1 times, the “effective dose relative to the dose of prostaglandin E2, gastric juice secretion inhibition” value [4] was 0.1-0.3 times and the “anti-aggregatory effect compared with prostaglandin E1” value [3] was “comparable or stronger anti-aggregatory effect”.

In the case of “5,6,7-trinor-4,9-inter-m-phenylene-17,18,19,20-tetranor-16-m-chlorophenoxy PGI2 [Compound 65]”, the “effective dose in inhibiting gastric juice secretion” value [4] is reported as 0.3 to 1 mg/kg and the “effective dose relative to the dose of prostaglandin E2, gastric juice secretion inhibition” value [4] is reported as 0.1-0.3 times.
